The results in this text go back to ChEMBL document CHEMBL6087434, “An Activatable Heavy-Atom-Free Upconversion Photosensitizer for Targeted Imaging and Treatment of Tumors” (J Med Chem, 2024).

Calls of active or inactive are those of the source. The rule behind the calls is not given here.

The nature of data set [1]: Induction of singlet oxygen quantum yield under 808 nm light irradiation by DPBF based assay. Format: functional.
Data set [2] relates to A549. The data set is described as follows: Induction of apoptosis in human A549 cells under 808 nm light irradiation by Annexin V-FITC/PI staining based flow cytometry. Format: functional, cell-based.
Data set [3] relates to A549. The data set can be described thus: Cytotoxicity against NAC-treated human A549 cells by DCF-DA probe based analysis. Format: functional, cell-based.
Data set [4] in a line: Induction of singlet oxygen quantum yield assessed as decrease in absorption signal under 415 nm light irradiation measured after 15 mins by DPBF based assay. The arrangement: scale not given: the % may be the effect or the level left. Format: functional.
The subject of data set [5] is A549. The data set can be described thus: Induction of singlet oxygen production in human A549 cells by DCF-DA probe based analysis. The format is functional, cell-based.
Data set [6] in a line: Induction of singlet oxygen quantum yield under 808 nm light irradiation in presence of NTR by DPBF based assay. The format is functional.
The nature of data set [7]: Photostability of compound upto 2 W/cm2 measured for 8 mins. The format is physicochemical.
Data set [8] relates to A549. The data set can be described thus: Cytotoxicity against human A549 cells under near-infra red light irradiation. The format is functional, cell-based.
The nature of data set [9]: Drug metabolism in human A549 cells assessed as NTR-mediated metabolism under 10 to 20 percent oxygen at 10 uM incubated for 30 mins by confocal fluorescence imaging based analysis. Format: ADME, cell-based. The note with it: a549, 0.5 h.
Data set [10] relates to A549. The data set can be described thus: Cytotoxicity against human A549 cells assessed as survival rate under absence of light upto 10 uM measured after 12 hrs by MTT assay relative to control. Format: functional. The note with it: up to 10 µM.
Data set [11] in a line: Drug uptake in mouse model xenografted with human A549 cells at 300 uM, iv measured after 90 mins by fluorescence based imaging analysis. The format is ADME, organism-based. The note with it: in vivo, 1.5 h. For orientation: In xenograft studies the graft and the host belong to different species.
The test system of data set [12] is HeLa. The data set is described as follows: Cytotoxicity against human HeLa cells assessed as survival rate under absence of light upto 10 uM measured after 12 hrs by MTT assay relative to control. The note with it: up to 10 µM. The format is functional. For orientation: Formazan colour is commonly taken as a measure of viable cells.
The subject of data set [13] is HeLa. The data set can be described thus: Cytotoxicity against human HeLa cells assessed as survival rate under laser light irradiation at 10 uM measured after 12 hrs by MTT assay relative to control. The note with it: light or radiation study, read-out: Survival. Format: functional.
A short description of data set [14]: Drug localization in human HeLa cells assessed as co-localization co-efficient at 10 uM by LysoTracker Green DND-2 dye based analysis. The format is ADME, cell-based.
The nature of data set [15]: Toxicity in mouse model xenografted with human A549 cells assessed as damage in heart at 300 uM, iv measured after 14 days by H and E staining based analysis. Format: organism-based. The note with it: 336 h, time 14 day.
Data set [16] has as its system A549. The data set can be described thus: Cytotoxicity against human A549 cells under 808 nm light irradiation by DCF-DA probe based analysis. The format is functional, cell-based.
A short description of data set [17]: Toxicity in mouse model xenografted with human A549 cells assessed as damage in liver at 300 uM, iv measured after 14 days by H and E staining based analysis. The format is organism-based. As to conditions: 336 h, time 14 day.
Data set [18] relates to A549. The data set is described as follows: Induction of singlet oxygen production in human A549 cells under 808 nm light irradiation by DCF-DA probe based analysis. Format: functional, cell-based.
Data set [19] is described as follows: Toxicity in mouse model xenografted with human A549 cells assessed as damage in lung at 300 uM, iv measured after 14 days by H and E staining based analysis. Format: organism-based. As to conditions: 336 h, time 14 day.
Data set [20] deals with A549. The data set can be described thus: Cytotoxicity against human A549 cells assessed as survival rate under laser light irradiation at 2.5 uM measured after 12 hrs by MTT assay relative to control. The format is functional. As to conditions: A549, light or radiation study, read-out: Survival.
For data set [21], the system named is 4T1. The data set is described as follows: Cytotoxicity against mouse 4T1 cells assessed as survival rate under laser light irradiation at 2.5 uM measured after 12 hrs by MTT assay relative to control. Format: functional. The note with it: 4T1, light or radiation study, read-out: Survival.
The test system of data set [22] is A549. The data set is described as follows: Antitumor activity against human A549 cells xenografted in mouse model assessed as decrease in tumor re-occurence at 300 uM, iv administered every other day under laser light irradiation measured after 14 days during observation period. The note with it: time 14.0 day. The format is functional, organism-based.
The subject of data set [23] is A549. The data set can be described thus: Inhibition of cell migration in human A549 cells under 808 nm light irradiation measured for 18 hrs by wound healing assay. The format is functional, cell-based.
The test system of data set [24] is A549. The data set can be described thus: Cytotoxicity against human A549 cells assessed as survival rate under laser light irradiation measured after 12 hrs by MTT assay. The format is functional, cell-based. The note with it: dose <= 10.0 µM.
Data set [25] in a line: Drug metabolism in human A549 cells assessed as NTR-mediated metabolism under 5 percent oxygen at 10 uM incubated for 30 mins by DAPI staining based CLSM analysis. The format is ADME, cell-based. The note with it: a549, 0.5 h.
In data set [26] the test system is A549. The data set can be described thus: Antitumor activity against human A549 cells xenografted in mouse model assessed as tumor growth inhibition at 300 uM, iv administered every other day under laser light irradiation for 14 days. Format: functional, organism-based. As to conditions: time 14.0 day.
A short description of data set [27]: Toxicity in mouse model xenografted with human A549 cells assessed as damage in spleen at 300 uM, iv measured after 14 days by H and E staining based analysis. Format: organism-based. As to conditions: 336 h, time 14 day.
A short description of data set [28]: Toxicity in mouse model xenografted with human A549 cells assessed as damage in kidney at 300 uM, iv measured after 14 days by H and E staining based analysis. The format is organism-based. As to conditions: 336 h, time 14 day.
Data set [29] is described as follows: Drug metabolism assessed as NTR(unknown origin)-mediated metabolism under 745 nm light irradiation by fluorescence based analysis. The format is ADME. As to conditions: human.
Data set [30] in a line: Drug localization in human A549 cells assessed as co-localization co-efficient at 10 uM by LysoTracker Green DND-2 dye based analysis. Format: ADME, cell-based. The note with it: a549, 10 µM.
Data set [31] concerns A549. The data set can be described thus: Cytotoxicity against human A549 cells assessed as survival rate under laser light irradiation at 10 uM measured after 12 hrs by MTT assay relative to control. The format is functional. As to conditions: A549, light or radiation study, read-out: Survival.
In data set [32] the test system is 4T1. The data set is described as follows: Cytotoxicity against mouse 4T1 cells assessed as survival rate under absence of light upto 10 uM measured after 12 hrs by MTT assay relative to control. Format: functional. As to conditions: up to 10 µM.
Data set [33] relates to A549. The data set is described as follows: Antitumor activity against human A549 cells xenografted in mouse model assessed as tumor disappearance at 300 uM, iv administered every other day under laser light irradiation for 14 days relative to control. Format: functional. As to conditions: time 14 day.
Data set [34] deals with HeLa. The data set is described as follows: Cytotoxicity against human HeLa cells assessed as survival rate under laser light irradiation at 2.5 uM measured after 12 hrs by MTT assay relative to control. The note with it: light or radiation study, read-out: Survival. The format is functional.
The subject of data set [35] is HeLa. The data set is described as follows: Cytotoxicity against human HeLa cells assessed as survival rate under laser light irradiation measured after 12 hrs by MTT assay. The format is functional, cell-based. The note with it: dose <= 10.0 µM.
Data set [36] has as its system A549. The data set can be described thus: Antitumor activity against human A549 cells xenografted in mouse model assessed as cellular structural damage at 300 uM, iv administered every other day under laser light irradiation measured after 14 days by H and E staining based analysis. The format is functional, organism-based. As to conditions: time 14.0 day.
The subject of data set [37] is 4T1. The data set can be described thus: Cytotoxicity against mouse 4T1 cells assessed as survival rate under laser light irradiation measured after 12 hrs by MTT assay. Format: functional, cell-based. The note with it: dose <= 10.0 µM.
For data set [38], the system named is A549. The data set is described as follows: Antitumor activity against human A549 cells xenografted in mouse model assessed as presence of necrotic cells at 300 uM, iv administered every other day under laser light irradiation measured after 14 days by H and E staining based analysis. Format: functional, organism-based. The note with it: time 14.0 day.
The nature of data set [39]: Drug uptake in human A549 cells xenografted in mouse model at 300 uM, iv measured after 2 hrs by fluorescence based imaging analysis. The format is ADME, organism-based. As to conditions: in vivo.
Data set [40] deals with 4T1. The data set can be described thus: Cytotoxicity against mouse 4T1 cells assessed as survival rate under laser light irradiation at 10 uM measured after 12 hrs by MTT assay relative to control. The note with it: 4T1, light or radiation study, read-out: Survival. The format is functional.
Data set [41] can be described thus: Toxicity in mouse model xenografted with human A549 cells assessed as body weight change at 300 uM, iv measured for 14 days. Format: organism-based. As to conditions: 336 h, time 14 day.
Data set [42] can be described thus: Drug metabolism in human L02 cells assessed as NTR-mediated metabolism at 10 uM incubated for 30 mins by DAPI staining based CLSM analysis. Format: ADME, cell-based. The note with it: l02, 0.5 h.
Data set [43] can be described thus: Drug metabolism in human A549 cells assessed as NTR-mediated metabolism at 10 uM incubated for 30 mins by DAPI staining based CLSM analysis. Format: ADME, cell-based. As to conditions: a549, 0.5 h.
Data set [44] in a line: Drug metabolism in human HeLa cells assessed as NTR-mediated metabolism at 10 uM incubated for 30 mins by DAPI staining based CLSM analysis. The format is ADME, cell-based. As to conditions: 0.5 h.

The compound `CC[N+]1=C(/C=C/C2=C3Oc4cc(N)ccc4C=C3CCC2)C(C)(C)c2ccccc21` yielded an Activity in data set [1] of 0.005.
Consider `CC[N+]1=C(/C=C/C2=C3Oc4cc(NC)ccc4C=C3CCC2)C(C)(C)c2c1ccc1ccccc21.[I-]`, for which the outcome in the data set with A549 [2], with A549 [5] and in the data set on A549 [8] was Active. Moreover, the result (with A549 [3]; in data set [6]) was inactive. Also, the Activity in data set [4] amounted to 74.7%; in data set [1], 0.059. Further, in data set [7], the Stability result was “Stable”.
In data set [1], `CC[N+]1=C(/C=C/C2=C3Oc4cc(O)ccc4C=C3CCC2)C(C)(C)c2ccccc21` came in with an Activity of 0.002.
With `CC[N+]1=C(/C=C/C2=C3Oc4cc(N(C)C(=O)OCc5ccc([N+](=O)[O-])cc5)ccc4C=C3CCC2)C(C)(C)c2c1ccc1ccccc21.I`, the result with A549 [2], in the data set on A549 [16], with A549 [18], in the data set on A549 [22], in the data set with A549 [36] and in the data set with A549 [38] was Active. The Drug metabolism result is on record as “metabolite_notdetected” in [9], “metabolite_detected” in [25] and “metabolite_detected” in data set [29]. Besides, the Survival with A549 [10], with HeLa [12] and in the data set with 4T1 [32] was over 85% in each case. In addition, the Drug uptake result in data set [11] and in data set [39] was “Active” each time. In addition, the viability at 10 µM in the data set on HeLa [13], in the data set with A549 [31] and in the data set on 4T1 [40] was under 40% in each case. Also, the Activity is 0.88 in [14]; “Non-toxic” in data set [15]; “Non-toxic” in data set [17]; “Non-toxic” in [19]; “Dose-dependent-effect” in the data set on A549 [24]; “Non-toxic” in [27]. Moreover, the Activity result in data set [28] was “Non-toxic”; in [30], 0.9; in the data set with A549 [33], about 100%; in the data set on HeLa [35] it was “Dose-dependent-effect”; with 4T1 [37], “Dose-dependent-effect”; in [41] it was “Non-toxic”. The viability at 2.5 µM in the data set on A549 [20], in the data set on 4T1 [21] and in the data set on HeLa [34] was under 80% each time. Moreover, the inhibition result with A549 [23] and with A549 [26] was “Active” each time.
As to COBALTOUS CHLORIDE, the Drug metabolism result in data set [42] was “metabolite_detected”.
Compound `CC[N+]1=C(/C=C/C2=C3Oc4cc(N)ccc4C=C3CCC2)C(C)(C)c2c1ccc1ccccc21` returned an Activity in [1] of 0.008.
Turning to `O=c1oc2ccccc2c(O)c1Cc1c(O)c2ccccc2oc1=O` [DICUMAROL], the result in the data set on A549 [16] and with A549 [18] was inactive. In addition, the Drug metabolism entry in data set [43] and in [44] was “metabolite_notdetected” in each case.
`CC[N+]1=C(/C=C/C2=C3Oc4cc(NC)ccc4C=C3CCC2)C(C)(C)c2ccccc21` showed an Activity in data set [1] of 0.005.
Still for that read-out and setting: as for `CC[N+]1=C(/C=C/C2=C3Oc4cc(O)ccc4C=C3CCC2)C(C)(C)c2c1ccc1ccccc21`, the figure is 0.002.
